± gives the expanded uncertainty stated by the source.
Key:
[1] = molar heat capacity at constant pressure; details: 101.33 kPa, Liquid, Small sample (50 mg) DSC
[2] = for mass density / viscosity: Liquid; for mass density: Vibrating tube method; for viscosity: 101.33 kPa, Capillary tube (Ostwald / Ubbelohde) method; for surface tension liquid-gas: Ring tensiometer

CCCC[n+]1cccc(C)c1.N#C[C-](C#N)C#N [1-butyl-3-methylpyridinium tricyanomethanide]
molar heat capacity at constant pressure ([1]; 298 K): 468 ± 47 J/K/mol | molar heat capacity at constant pressure ([1]; 323 K): 479 ± 48 J/K/mol | mass density ([2]; 283.15 K): 1052.57 ± 1.3 kg/m3 | mass density ([2]; 293.15 K): 1045.79 ± 1.3 kg/m3 | viscosity ([2]; 295.15 K): 51.42 ± 2.2 mPa·s | surface tension liquid-gas ([2]; 296.05 K): 27.7 ± 0.6 mN/m | viscosity ([2]; 298.15 K): 43.92 ± 1.9 mPa·s | viscosity ([2]; 303.15 K): 34.87 ± 1.5 mPa·s | mass density ([2]; 303.15 K): 1039.12 ± 1.3 kg/m3 | surface tension liquid-gas ([2]; 305.75 K): 27.3 ± 0.6 mN/m | viscosity ([2]; 308.15 K): 28.22 ± 1.2 mPa·s | viscosity ([2]; 313.15 K): 23.27 ± 0.98 mPa·s | mass density ([2]; 313.15 K): 1032.55 ± 1.3 kg/m3 | surface tension liquid-gas ([2]; 313.75 K): 26.9 ± 0.6 mN/m | surface tension liquid-gas ([2]; 320.65 K): 26.6 ± 0.6 mN/m | viscosity ([2]; 323.15 K): 16.25 ± 0.68 mPa·s | mass density ([2]; 323.15 K): 1026.1 ± 1.3 kg/m3 | surface tension liquid-gas ([2]; 329.85 K): 26.3 ± 0.6 mN/m | viscosity ([2]; 333.15 K): 12.19 ± 0.51 mPa·s | mass density ([2]; 333.15 K): 1019.76 ± 1.3 kg/m3 | surface tension liquid-gas ([2]; 338.15 K): 26 ± 0.6 mN/m | viscosity ([2]; 343.15 K): 9.56 ± 0.4 mPa·s | mass density ([2]; 343.15 K): 1013.52 ± 1.3 kg/m3 | surface tension liquid-gas ([2]; 346.15 K): 25.5 ± 0.5 mN/m | viscosity ([2]; 353.15 K): 7.54 ± 0.31 mPa·s | mass density ([2]; 353.15 K): 1007.34 ± 1.3 kg/m3 | surface tension liquid-gas ([2]; 356.15 K): 25.1 ± 0.5 mN/m | viscosity ([2]; 363.15 K): 6.07 ± 0.25 mPa·s | mass density ([2]; 363.15 K): 1001.13 ± 1.3 kg/m3

— the NIST ThermoML archive (doi:10.1016/j.fluid.2011.05.002)
